Measured values reported in ChEMBL document CHEMBL6078729, “Synthetic glycol-split heparin tri- and tetrasaccharides provide new insights into structural peculiarities for antiheparanase activity” (Bioorg Med Chem, 2025).

Molecular target: T1, Heparanase (Homo sapiens, UniProt Q9Y251)
T1 sequence (Q9Y251 whole entry): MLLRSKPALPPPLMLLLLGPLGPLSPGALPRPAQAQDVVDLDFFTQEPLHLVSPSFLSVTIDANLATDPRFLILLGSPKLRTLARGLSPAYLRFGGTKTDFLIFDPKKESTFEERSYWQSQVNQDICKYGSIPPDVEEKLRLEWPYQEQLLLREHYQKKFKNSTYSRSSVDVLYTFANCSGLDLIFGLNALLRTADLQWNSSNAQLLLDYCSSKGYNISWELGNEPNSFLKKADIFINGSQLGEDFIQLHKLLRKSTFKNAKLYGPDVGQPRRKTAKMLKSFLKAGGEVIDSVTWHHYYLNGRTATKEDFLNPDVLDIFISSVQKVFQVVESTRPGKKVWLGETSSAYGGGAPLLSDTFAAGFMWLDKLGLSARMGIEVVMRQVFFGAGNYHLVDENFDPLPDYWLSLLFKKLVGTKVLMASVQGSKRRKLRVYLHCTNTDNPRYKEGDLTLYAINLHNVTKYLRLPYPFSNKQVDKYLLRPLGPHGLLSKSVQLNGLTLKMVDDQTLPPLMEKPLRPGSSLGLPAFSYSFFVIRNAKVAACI
Experiment: Inhibition of recombinant human heparanase assessed as fondaparinux cleavage by measuring disaccharide by colorimetric analysis

Structure (SMILES)	IC50 [µM]
CO[C@H]1O[C@H](COS(=O)(=O)O)[C@@H](O[C@@H]2O[C@@H](C(=O)O)[C@@H](O[C@H]3O[C@H](COS(=O)(=O)O)[C@@H](O[C@@H]4O[C@@H](C(=O)O)[C@@H](OC)[C@H](O)[C@H]4O)[C@H](O)[C@H]3NS(=O)(=O)O)[C@H](O)[C@H]2O)[C@H](O)[C@H]1NS(=O)(=O)O	> 85.3
CO[C@H]1O[C@H](COS(=O)(=O)O)[C@@H](O[C@@H]2O[C@H](C(=O)O)[C@@H](O[C@H]3O[C@H](COS(=O)(=O)O)[C@@H](OC)[C@H](O)[C@H]3NS(=O)(=O)O)[C@H](O)[C@H]2O)[C@H](O)[C@H]1NS(=O)(=O)O	> 103
CO[C@H]1O[C@H](COS(=O)(=O)O)[C@@H](O[C@@H]2O[C@@H](C(=O)O)[C@@H](O[C@H]3O[C@H](COS(=O)(=O)O)[C@@H](OC)[C@H](O)[C@H]3NS(=O)(=O)O)[C@H](O)[C@H]2O)[C@H](O)[C@H]1NS(=O)(=O)O	> 103
CO[C@H]1O[C@H](COS(=O)(=O)O)[C@@H](O[C@H](O[C@@H](C(=O)O)[C@H](O[C@H]2O[C@H](COS(=O)(=O)O)[C@@H](OC)[C@H](O)[C@H]2NS(=O)(=O)O)C(=O)O)C(=O)O)[C@H](O)[C@H]1NS(=O)(=O)O	> 95.4

Stronger by IC50, values ahead:

IC50 [µM]	Structure (SMILES)
76.8	CO[C@H]1O[C@H](COS(=O)(=O)O)[C@@H](O[C@@H](CO)O[C@H](C(=O)O)[C@@H](CO)O[C@H]2O[C@H](COS(=O)(=O)O)[C@@H](OC)[C@H](O)[C@H]2NS(=O)(=O)O)[C@H](O)[C@H]1NS(=O)(=O)O
71.5	CO[C@H]1O[C@H](COS(=O)(=O)O)[C@@H](O[C@H](O[C@H](C(=O)O)[C@H](O[C@H]2O[C@H](COS(=O)(=O)O)[C@@H](OC)[C@H](O)[C@H]2NS(=O)(=O)O)C(=O)O)C(=O)O)[C@H](O)[C@H]1NS(=O)(=O)O
63.7	CO[C@H]1O[C@H](COS(=O)(=O)O)[C@@H](O[C@@H](CO)O[C@@H](C(=O)O)[C@H](CO)O[C@H]2O[C@H](COS(=O)(=O)O)[C@@H](O[C@@H](CO)O[C@@H](C(=O)O)[C@H](CO)OC)[C@H](O)[C@H]2NS(=O)(=O)O)[C@H](O)[C@H]1NS(=O)(=O)O
37.9	CO[C@H]1O[C@H](COS(=O)(=O)O)[C@@H](O[C@@H](CO)O[C@@H](C(=O)O)[C@@H](CO)O[C@H]2O[C@H](COS(=O)(=O)O)[C@@H](OC)[C@H](O)[C@H]2NS(=O)(=O)O)[C@H](O)[C@H]1NS(=O)(=O)O
7.57	CO[C@H]1O[C@H](COS(=O)(=O)O)[C@@H](O[C@H](O[C@@H](C(=O)O)[C@@H](O[C@H]2O[C@H](COS(=O)(=O)O)[C@@H](O[C@H](O[C@@H](C(=O)O)[C@@H](OC)C(=O)O)C(=O)O)[C@H](O)[C@H]2NS(=O)(=O)O)C(=O)O)C(=O)O)[C@H](O)[C@H]1NS(=O)(=O)O
